Where two headings read alike, the source gives them in different places. Where no end group is shown, it is not given here.
Experiments:
Assay type in all cases: cell-based, human
[1] = tested on: memory CD8 T cells from convalescent COVID-19 patients
[2] = tested on: memory CD8+ T cells specific for A*02:01 epitopes; conditions: Allele A02
[3] = tested on: naïve CD8 T cells isolated from healthy donors; conditions: 10 days of expansion; tetramer staining; FIG. 14, FIG. 15

| Sequence | % of Pts (Screen M+ 2SD) ([1]; Allele A01) | % of Pts (Tetramer) [2] | other results |
| --- | --- | --- | --- |
| DTDFVNEFY [DTD] | 40% |  |  |
| LLLDRLNQL [LLL] |  | 22.2% | % of Pts (Screen M+ 2SD) ([1]; Allele A02): 33.3% |
| LLYDANYFL [LLY] |  | 55.6% |  |
| NTCDGTTFTY [NTC] | 60% |  |  |
| YLQPRTFLL [YLQ] |  |  | expansion of peptide-specific T cells from the naïve T cell population [3]: induces an expansion of peptide-specific T cells |
